Test results reported in patent US20070134281A1, “Investigate the potential of using beetle odours to deter slugs in vining peas” (priority 2004, published 2007).
Where two headings read alike, the source gives them in different places.

Legend:
[1] = test system: Deroceras reticulatum slugs; assay: Glasshouse study of slug feeding damage on growing pea plants; type: in vivo; conditions: 2nd day of test
Description: A suitable experimental design had to be substituted for this glasshouse study, based on the principles to show avoidance behaviour. This was also remarkably achieved on a five point scale to record slug behaviour, under a simple experimental procedure which lasted for only five days, to conclude this semi-field trial just by using the existing facilities alone at […] Housewares Ltd who manufactured their items for supermarket sale, provided plastic bowls in different colours to suit a random style experiment to show this current field study inside the glasshouse. Whifford Plastics Ltd produced fluon, a test chemical which had been used before to stop slugs from escaping the planned experiment in Cardiff University, was sold in litres sufficient to cover the sides of these plastic bowls by using only a simple paint brush. F. A Smith a soil merchant supplying for Cardiff University Horticultural services at Talybont, produced John Innes Potting compost No 2 commonly used in a nursery for growing peas, ideally because the sterilised soil with peat and grit added has a base fertiliser for quick germination. […] To keep the peas nice and damp and the slugs happy, the multipurpose peat based compost from the local B&Q store was adequate to support the trays of peas inside the plastic bowls which was 2⁄3 filled with this moist peat and the tray positioned so that the rim is flush with the surface of the peat. All the slugs used in this experiment were collected from the fields around Talybont, where they were actively seen to be searching for food lurking under the plants during the early hours of the morning at sunrise and pre-starved for a further 24 hours at 15° C., 80% RH, 12 hour light: dark regime, prior to testing inside the glasshouse. These were also the same species of slugs causing contamination during the routine operation in […] has a latin name Deroceras reticulatum, already well known for its physical damage to other crops under use in the UK. […]

[2] = test system: Deroceras reticulatum slugs; assay: Petri dish choice test (control and test sector) with test solutions made from commercial organic acids; type: in vivo; conditions: 24 hour period, n=10 replicates, laboratory
Procedure: Next, using the results obtained from Mass spectrometry to make up the test solutions with these organic acids, the behaviour of the slugs in the presence of beetle odours was now investigated. Initially this test was carried out inside the laboratory in the manner previously shown for pygidial secretions using a control and test sector to show the slug's choice overnight within a petri dish. […] However the results of all these tests still remains to be analysed and will appear in the PhD thesis only after using a computer software for image analysis.

[3] = cited from earlier work

| SMILES | Feeding damage by slugs on growing pea plants [1] | Avoidance of treated area (proportion of total area of petri dish covered by slug trails) [2] | Solubility in water ([3]; 20° C.) | Solubility in water ([3]; cold water) | Solubility in water ([3]; hot water) |
| --- | --- | --- | --- | --- | --- |
| CC(=O)O [Acetic Acid] | Concern | – | – | – | – |
| O=CO [Formic Acid] | – | scare slugs stiff | – | – | – |
| C=C(C)C(=O)O [Methacrylic Acid] | damage was effectively reduced | – | 9.7 g/100 ml (20° C.) | – | – |
| C/C=C(\C)C(=O)O [Tiglic Acid] | Concern | – | – | sparingly | soluble |
